Results published in ChEMBL document CHEMBL1926681, “Novel inhibitors of epidermal growth factor receptor: (4-(Arylamino)-7H-pyrrolo[2,3-d]pyrimidin-6-yl)(1H-indol-2-yl)methanones and (1H-indol-2-yl)(4-(phenylamino)thieno[2,3-d]pyrimidin-6-yl)methanones” (Bioorg Med Chem, 2012).
The source made the active and inactive calls. The rule behind the calls is not given here.

What was measured:
[1] = target: Hepatocyte growth factor receptor (Homo sapiens) (UniProt P08581); assay: Inhibition of MET using poly(Ala, Glu, Lys, Tyr) as substrate and [gamma33P]ATP at 1 uM after 60 mins by scintillation counting
Sequence of Hepatocyte growth factor receptor (Homo sapiens) (P08581 whole entry): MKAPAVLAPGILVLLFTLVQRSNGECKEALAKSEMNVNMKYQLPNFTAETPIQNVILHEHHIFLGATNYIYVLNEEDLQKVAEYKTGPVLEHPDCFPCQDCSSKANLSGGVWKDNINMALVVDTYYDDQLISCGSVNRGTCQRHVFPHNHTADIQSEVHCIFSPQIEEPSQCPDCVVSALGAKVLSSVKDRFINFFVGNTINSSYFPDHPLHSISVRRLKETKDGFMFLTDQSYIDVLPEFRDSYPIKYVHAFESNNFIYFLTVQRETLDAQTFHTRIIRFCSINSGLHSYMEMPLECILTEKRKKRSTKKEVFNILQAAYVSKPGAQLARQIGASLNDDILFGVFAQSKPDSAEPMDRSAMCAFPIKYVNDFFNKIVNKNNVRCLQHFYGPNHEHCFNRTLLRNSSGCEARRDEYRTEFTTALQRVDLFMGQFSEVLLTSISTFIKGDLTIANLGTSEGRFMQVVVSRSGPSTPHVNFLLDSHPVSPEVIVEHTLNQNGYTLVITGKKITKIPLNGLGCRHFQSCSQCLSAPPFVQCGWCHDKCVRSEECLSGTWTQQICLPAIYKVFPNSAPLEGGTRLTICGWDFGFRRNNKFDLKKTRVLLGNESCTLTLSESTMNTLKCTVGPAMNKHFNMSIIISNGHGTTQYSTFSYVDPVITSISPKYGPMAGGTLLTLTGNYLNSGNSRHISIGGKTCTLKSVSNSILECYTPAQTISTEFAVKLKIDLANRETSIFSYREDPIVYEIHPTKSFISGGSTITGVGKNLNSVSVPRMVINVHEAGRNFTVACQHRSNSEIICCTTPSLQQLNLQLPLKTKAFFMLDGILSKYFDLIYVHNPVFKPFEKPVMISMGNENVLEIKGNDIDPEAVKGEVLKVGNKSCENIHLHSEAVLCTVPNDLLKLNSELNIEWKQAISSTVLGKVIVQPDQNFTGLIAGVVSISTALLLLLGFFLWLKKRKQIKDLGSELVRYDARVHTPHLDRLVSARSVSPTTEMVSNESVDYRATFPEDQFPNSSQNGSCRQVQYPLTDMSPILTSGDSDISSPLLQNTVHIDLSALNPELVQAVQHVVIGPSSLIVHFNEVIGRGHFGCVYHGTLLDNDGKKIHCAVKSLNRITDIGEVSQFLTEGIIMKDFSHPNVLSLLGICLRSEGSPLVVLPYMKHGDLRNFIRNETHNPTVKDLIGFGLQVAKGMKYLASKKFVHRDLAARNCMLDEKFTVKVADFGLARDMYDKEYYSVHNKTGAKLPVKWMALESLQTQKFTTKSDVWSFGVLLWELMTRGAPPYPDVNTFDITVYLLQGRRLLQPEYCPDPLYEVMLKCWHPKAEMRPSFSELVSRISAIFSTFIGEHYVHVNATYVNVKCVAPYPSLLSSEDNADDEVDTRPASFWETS

[2] = Cytotoxicity against human PXF 698L cells after 4 days by propidium iodide staining-based fluorometric analysis; type: functional, cell-based; settings: 96 h
[3] = target: T1, Epidermal growth factor receptor (Homo sapiens, UniProt P00533); assay: Inhibition of EGFR using poly(Glu,Tyr)4:1 as substrate and [gamma33P]ATP at 1 uM after 60 mins by scintillation counting
T1 sequence (P00533 whole entry): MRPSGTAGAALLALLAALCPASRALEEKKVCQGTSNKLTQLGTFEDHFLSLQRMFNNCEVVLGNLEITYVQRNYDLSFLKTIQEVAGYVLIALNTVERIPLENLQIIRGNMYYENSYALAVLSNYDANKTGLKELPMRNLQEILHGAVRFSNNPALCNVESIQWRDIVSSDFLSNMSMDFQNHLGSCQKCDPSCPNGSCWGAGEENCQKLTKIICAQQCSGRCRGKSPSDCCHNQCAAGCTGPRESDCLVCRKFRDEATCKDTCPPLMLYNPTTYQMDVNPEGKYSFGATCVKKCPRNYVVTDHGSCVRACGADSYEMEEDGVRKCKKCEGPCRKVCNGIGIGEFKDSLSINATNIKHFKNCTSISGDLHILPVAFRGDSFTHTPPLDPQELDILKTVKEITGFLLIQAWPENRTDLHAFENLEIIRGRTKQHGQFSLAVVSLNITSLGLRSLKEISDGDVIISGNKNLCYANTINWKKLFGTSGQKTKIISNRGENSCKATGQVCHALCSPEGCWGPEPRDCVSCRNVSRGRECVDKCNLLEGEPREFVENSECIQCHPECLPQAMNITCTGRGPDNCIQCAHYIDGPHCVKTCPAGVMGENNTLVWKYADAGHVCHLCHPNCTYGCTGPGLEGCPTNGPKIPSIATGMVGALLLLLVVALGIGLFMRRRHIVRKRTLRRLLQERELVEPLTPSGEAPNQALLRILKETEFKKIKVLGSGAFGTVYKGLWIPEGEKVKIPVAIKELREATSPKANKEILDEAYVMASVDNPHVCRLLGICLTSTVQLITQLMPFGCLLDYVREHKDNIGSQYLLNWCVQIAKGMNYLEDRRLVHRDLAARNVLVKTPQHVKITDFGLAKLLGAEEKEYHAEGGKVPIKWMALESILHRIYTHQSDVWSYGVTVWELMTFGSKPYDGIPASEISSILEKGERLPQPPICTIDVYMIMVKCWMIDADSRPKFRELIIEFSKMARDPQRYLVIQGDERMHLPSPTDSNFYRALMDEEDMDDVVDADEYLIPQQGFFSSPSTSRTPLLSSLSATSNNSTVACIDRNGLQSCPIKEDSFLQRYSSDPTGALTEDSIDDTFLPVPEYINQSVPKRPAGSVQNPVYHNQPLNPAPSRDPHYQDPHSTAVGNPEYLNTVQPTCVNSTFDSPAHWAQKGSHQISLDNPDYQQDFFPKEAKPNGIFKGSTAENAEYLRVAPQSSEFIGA

[4] = Cytotoxicity against human MAXF 401NL cells after 4 days by propidium iodide staining-based fluorometric analysis; type: functional, cell-based; settings: 96 h
[5] = target: Vascular endothelial growth factor receptor 2 (Homo sapiens) (UniProt P35968); assay: Inhibition of VEGFR2 using poly(Glu,Tyr)4:1 as substrate and [gamma33P]ATP at 1 uM after 60 mins by scintillation counting
Sequence of Vascular endothelial growth factor receptor 2 (Homo sapiens) (P35968 whole entry): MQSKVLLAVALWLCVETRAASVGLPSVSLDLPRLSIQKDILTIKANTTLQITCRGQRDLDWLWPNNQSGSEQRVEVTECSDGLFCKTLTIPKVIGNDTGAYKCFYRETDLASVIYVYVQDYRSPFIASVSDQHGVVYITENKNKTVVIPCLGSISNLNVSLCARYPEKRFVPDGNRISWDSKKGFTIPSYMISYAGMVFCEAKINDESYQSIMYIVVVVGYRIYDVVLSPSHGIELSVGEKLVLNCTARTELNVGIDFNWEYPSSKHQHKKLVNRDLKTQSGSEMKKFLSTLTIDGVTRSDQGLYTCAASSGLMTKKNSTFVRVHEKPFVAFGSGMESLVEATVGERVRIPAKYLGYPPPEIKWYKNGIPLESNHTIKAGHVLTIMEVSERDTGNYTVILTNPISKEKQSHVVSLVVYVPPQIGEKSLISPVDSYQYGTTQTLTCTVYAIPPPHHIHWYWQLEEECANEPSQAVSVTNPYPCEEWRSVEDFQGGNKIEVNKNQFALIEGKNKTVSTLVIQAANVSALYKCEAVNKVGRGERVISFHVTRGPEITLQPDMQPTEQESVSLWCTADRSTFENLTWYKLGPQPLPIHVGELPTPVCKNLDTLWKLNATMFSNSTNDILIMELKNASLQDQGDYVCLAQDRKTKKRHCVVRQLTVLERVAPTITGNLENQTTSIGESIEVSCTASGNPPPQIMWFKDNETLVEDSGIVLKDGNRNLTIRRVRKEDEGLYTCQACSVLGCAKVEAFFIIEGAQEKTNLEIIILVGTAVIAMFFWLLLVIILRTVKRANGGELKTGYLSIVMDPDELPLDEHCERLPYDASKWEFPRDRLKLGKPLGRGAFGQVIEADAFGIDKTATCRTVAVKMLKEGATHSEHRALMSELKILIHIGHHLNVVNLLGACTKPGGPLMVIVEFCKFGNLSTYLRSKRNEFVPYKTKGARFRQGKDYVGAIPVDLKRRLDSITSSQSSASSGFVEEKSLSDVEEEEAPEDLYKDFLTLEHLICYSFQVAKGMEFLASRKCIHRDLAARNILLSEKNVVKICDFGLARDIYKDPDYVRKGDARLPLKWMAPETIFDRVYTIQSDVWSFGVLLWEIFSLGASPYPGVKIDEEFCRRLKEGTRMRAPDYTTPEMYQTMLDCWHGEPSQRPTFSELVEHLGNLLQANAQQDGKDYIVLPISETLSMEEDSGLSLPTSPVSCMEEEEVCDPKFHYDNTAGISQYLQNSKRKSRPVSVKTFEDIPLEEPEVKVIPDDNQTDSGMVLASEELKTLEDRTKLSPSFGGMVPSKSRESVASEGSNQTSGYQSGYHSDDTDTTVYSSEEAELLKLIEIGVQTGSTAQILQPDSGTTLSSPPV

SAOS-2 = assay: Cytotoxicity against human Saos2 cells after 4 days by propidium iodide staining-based fluorometric analysis; type: functional, cell-based; settings: SAOS-2, 96 h
[6] = Cytotoxicity against human BXF 1218L cells after 4 days by propidium iodide staining-based fluorometric analysis; type: functional, cell-based; settings: 96 h
[7] = Cytotoxicity against human LXFA 526L cells after 4 days by propidium iodide staining-based fluorometric analysis; type: functional, cell-based; settings: 96 h
[8] = Cytotoxicity against human PC3M cells after 4 days by propidium iodide staining-based fluorometric analysis; type: functional, cell-based; settings: PC-3M, 96 h
TE-671 = assay: Cytotoxicity against human TE671 cells after 4 days by propidium iodide staining-based fluorometric analysis; type: functional, cell-based; settings: TE-671, 96 h
DU-145 = assay: Cytotoxicity against human DU145 cells after 4 days by propidium iodide staining-based fluorometric analysis; type: functional, cell-based; settings: DU-145, 96 h
[9] = Cytotoxicity against human OVXF 899L cells after 4 days by propidium iodide staining-based fluorometric analysis; type: functional, cell-based; settings: 96 h
[10] = Cytotoxicity against human RXF 393NL cells after 4 days by propidium iodide staining-based fluorometric analysis; type: functional, cell-based; settings: 96 h
[11] = Cytotoxicity against human PAXF 1657L cells after 4 days by propidium iodide staining-based fluorometric analysis; type: functional, cell-based; settings: 96 h
[12] = Cytotoxicity against human PXF 1752L cells after 4 days by propidium iodide staining-based fluorometric analysis; type: functional, cell-based; settings: 96 h
[13] = target: T1, Epidermal growth factor receptor; assay: Inhibition of EGFR autophosphorylation in EGF-stimulated human A431 cells after 1 hr by immunoblotting; type: cell-based, A-431
[14] = Cytotoxicity against human BXF T24 cells after 4 days by propidium iodide staining-based fluorometric analysis; type: functional, cell-based; settings: T-24, 96 h
[15] = Cytotoxicity against human MDA231 cells after 4 days by propidium iodide staining-based fluorometric analysis; type: functional, cell-based; settings: MDA-MB-231, 96 h
[16] = Cytotoxicity against human MEXF 1341L cells after 4 days by propidium iodide staining-based fluorometric analysis; type: functional, cell-based; settings: 96 h
HCT-116 = assay: Cytotoxicity against human HCT116 cells after 4 days by propidium iodide staining-based fluorometric analysis; type: functional, cell-based; settings: HCT-116, 96 h
MCF7 = assay: Cytotoxicity against human MCF7 cells after 4 days by propidium iodide staining-based fluorometric analysis; type: functional, cell-based; settings: MCF7, 96 h
[17] = Cytotoxicity against human MEXF 276L cells after 4 days by propidium iodide staining-based fluorometric analysis; type: functional, cell-based; settings: MEXF276L, 96 h
[18] = Cytotoxicity against human GXF251L cells after 4 days by propidium iodide staining-based fluorometric analysis; type: functional, cell-based; settings: GXF 251L, 96 h
[19] = Cytotoxicity against human RXF 1781L cells after 4 days by propidium iodide staining-based fluorometric analysis; type: functional, cell-based; settings: 96 h
[20] = target: Receptor tyrosine-protein kinase erbB-2 (Homo sapiens) (UniProt P04626); assay: Inhibition of Erbb2 using poly(Glu,Tyr)4:1 as substrate and [gamma33P]ATP at 1 uM after 60 mins by scintillation counting
[21] = Cytotoxicity against human CXF 269L cells after 4 days by propidium iodide staining-based fluorometric analysis; type: functional, cell-based; settings: 96 h
[22] = Cytotoxicity against human DIFI cells after 4 days by propidium iodide staining-based fluorometric analysis; type: functional, cell-based; settings: 96 h
[23] = Cytotoxicity against human LXFA 629L cells after 4 days by propidium iodide staining-based fluorometric analysis; type: functional, cell-based; settings: 96 h
[24] = Cytotoxicity against human BXF 1352L cells after 4 days by propidium iodide staining-based fluorometric analysis; type: functional, cell-based; settings: 96 h
MKN-45 = assay: Cytotoxicity against human MKN45 cells after 4 days by propidium iodide staining-based fluorometric analysis; type: functional, cell-based; settings: MKN-45, 96 h
[25] = Cytotoxicity against human LXFL 529L cells after 4 days by propidium iodide staining-based fluorometric analysis; type: functional, cell-based; settings: 96 h
[26] = Cytotoxicity against human PXF 1118L cells after 4 days by propidium iodide staining-based fluorometric analysis; type: functional, cell-based; settings: 96 h
[27] = Cytotoxicity against human UXF 1138L cells after 4 days by propidium iodide staining-based fluorometric analysis; type: functional, cell-based; settings: 96 h
RKO = assay: Cytotoxicity against human RKO cells after 4 days by propidium iodide staining-based fluorometric analysis; type: functional, cell-based; settings: 96 h
[28] = target: Tyrosine-protein kinase ABL1 (Homo sapiens) (UniProt P00519); assay: Inhibition of ABL1 using poly(Ala, Glu, Lys, Tyr) as substrate and [gamma33P]ATP at 1 uM after 60 mins by scintillation counting
Sequence of Tyrosine-protein kinase ABL1 (Homo sapiens) (P00519 whole entry): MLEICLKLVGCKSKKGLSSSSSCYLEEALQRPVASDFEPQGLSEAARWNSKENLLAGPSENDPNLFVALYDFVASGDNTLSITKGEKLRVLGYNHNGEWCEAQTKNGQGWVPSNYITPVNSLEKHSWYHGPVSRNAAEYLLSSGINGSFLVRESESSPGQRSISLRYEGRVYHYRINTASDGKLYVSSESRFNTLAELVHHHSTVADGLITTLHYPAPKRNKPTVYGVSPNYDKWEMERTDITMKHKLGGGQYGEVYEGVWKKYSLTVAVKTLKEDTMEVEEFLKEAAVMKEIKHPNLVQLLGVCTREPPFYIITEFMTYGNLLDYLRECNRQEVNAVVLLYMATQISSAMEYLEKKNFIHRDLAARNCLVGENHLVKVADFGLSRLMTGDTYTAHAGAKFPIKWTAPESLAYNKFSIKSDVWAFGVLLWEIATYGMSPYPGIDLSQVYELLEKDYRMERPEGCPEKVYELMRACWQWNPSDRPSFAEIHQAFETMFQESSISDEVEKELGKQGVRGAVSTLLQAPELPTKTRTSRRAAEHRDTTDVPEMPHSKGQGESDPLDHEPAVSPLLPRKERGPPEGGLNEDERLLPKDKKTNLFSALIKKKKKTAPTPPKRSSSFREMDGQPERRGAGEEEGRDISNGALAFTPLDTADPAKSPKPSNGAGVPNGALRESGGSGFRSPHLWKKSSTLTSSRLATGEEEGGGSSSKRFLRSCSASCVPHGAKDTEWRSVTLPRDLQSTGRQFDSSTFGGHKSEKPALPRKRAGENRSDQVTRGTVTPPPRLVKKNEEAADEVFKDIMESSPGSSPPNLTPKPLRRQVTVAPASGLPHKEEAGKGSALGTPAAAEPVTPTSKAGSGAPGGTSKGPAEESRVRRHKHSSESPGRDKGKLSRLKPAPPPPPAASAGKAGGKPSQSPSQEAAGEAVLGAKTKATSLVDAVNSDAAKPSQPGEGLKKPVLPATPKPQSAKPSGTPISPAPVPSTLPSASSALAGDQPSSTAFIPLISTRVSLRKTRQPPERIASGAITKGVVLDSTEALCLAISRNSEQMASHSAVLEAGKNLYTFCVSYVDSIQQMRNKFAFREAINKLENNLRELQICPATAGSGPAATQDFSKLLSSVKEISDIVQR

LNCaP = assay: Cytotoxicity against human LNCAP cells after 4 days by propidium iodide staining-based fluorometric analysis; type: functional, cell-based; settings: 96 h
CWR22R = assay: Cytotoxicity against human 22Rv1 cells after 4 days by propidium iodide staining-based fluorometric analysis; type: functional, cell-based; settings: 22Rv1, 96 h
[29] = Cytotoxicity against human LXFA 289L cells after 4 days by propidium iodide staining-based fluorometric analysis; type: functional, cell-based; settings: 96 h
[30] = Cytotoxicity against human PAXF 546L cells after 4 days by propidium iodide staining-based fluorometric analysis; type: functional, cell-based; settings: 96 h
[31] = Cytotoxicity against human LXFL 1121L cells after 4 days by propidium iodide staining-based fluorometric analysis; type: functional, cell-based; settings: 96 h
[32] = Cytotoxicity against human LIXF 575L cells after 4 days by propidium iodide staining-based fluorometric analysis; type: functional, cell-based; settings: 96 h
[33] = Cytotoxicity against human RXF 486L cells after 4 days by propidium iodide staining-based fluorometric analysis; type: functional, cell-based; settings: 96 h
[34] = Cytotoxicity against human MEXF 462NL cells after 4 days by propidium iodide staining-based fluorometric analysis; type: functional, cell-based; settings: 96 h
[35] = target: T1, Epidermal growth factor receptor; assay: Inhibition of EGFR using poly(Glu,Tyr)4:1 as substrate and [gamma33P]ATP after 60 mins by scintillation counting
HT-29 = assay: Cytotoxicity against human HT-29 cells after 4 days by propidium iodide staining-based fluorometric analysis; type: functional, cell-based; settings: HT-29, 96 h
CAL-27 = assay: Cytotoxicity against human CAL27 cells after 4 days by propidium iodide staining-based fluorometric analysis; type: functional, cell-based; settings: CAL-27, 96 h
NCI-H460 = assay: Cytotoxicity against human H460 cells after 4 days by propidium iodide staining-based fluorometric analysis; type: functional, cell-based; settings: NCI-H460, 96 h
OVCAR-3 = assay: Cytotoxicity against human OVCAR3 cells after 4 days by propidium iodide staining-based fluorometric analysis; type: functional, cell-based; settings: OVCAR-3, 96 h
PANC-1 = assay: Cytotoxicity against human PANC1 cells after 4 days by propidium iodide staining-based fluorometric analysis; type: functional, cell-based; settings: PANC-1, 96 h

SMILES: O=C(c1cc2cc(O)ccc2[nH]1)c1cc2c(Nc3ccc(F)c(Cl)c3)ncnc2s1
- inhibition [1]: inactive
- IC50 [2]: 9.23 µM
- inhibition [3]: 98%
- IC50 [4]: 4.09 µM
- inhibition [5]: 10%
- IC50 (SAOS-2; read-out: IC50): 8.2 µM
- IC50 [6]: 6.34 µM
- IC50 [7]: 4.36 µM
- IC50 [8]: 5.45 µM
- IC50 (TE-671): 10.1 µM
- IC50 (DU-145): 2.96 µM
- IC50 [9]: 4.07 µM
- IC50 [10]: 5.87 µM
- IC50 [11]: 9.08 µM
- IC50 [12]: 8.19 µM
- IC50 [13]: 0.1 µM
- IC50 [14]: 9.56 µM
- IC50 [15]: 7.65 µM
- IC50 [16]: 5.89 µM
- IC50 (HCT-116): 7.69 µM
- IC50 (MCF7): 4.22 µM
- IC50 [17]: 6.28 µM
- IC50 [18]: 4.09 µM
- IC50 [19]: 4.87 µM
- inhibition [20]: 87%
- IC50 [21]: 7.58 µM
- IC50 [22]: 0.94 µM
- IC50 [23]: 2.65 µM
- IC50 [24]: 5.97 µM
- IC50 (MKN-45): 7.26 µM
- IC50 [25]: 4.87 µM
- IC50 [26]: 9.59 µM
- IC50 [27]: 3.45 µM
- IC50 (RKO): 6.01 µM
- inhibition [28]: inactive
- IC50 (LNCaP): 3.01 µM
- IC50 (CWR22R): 5.61 µM
- IC50 [29]: 3.25 µM
- IC50 [30]: 8.85 µM
- IC50 [31]: 6.02 µM
- IC50 [32]: 7.04 µM
- IC50 [33]: 3.37 µM
- IC50 [34]: 6.02 µM
- IC50 [35]: 0.024 µM
- IC50 (HT-29): 13.7 µM
- IC50 (CAL-27): 1.28 µM
- IC50 (NCI-H460): 6 µM
- IC50 (OVCAR-3): 9.08 µM
- IC50 (PANC-1): 7.95 µM

SMILES: COc1ccc2[nH]c(C(=O)c3cc4c(Nc5ccc(F)c(Cl)c5)ncnc4s3)cc2c1
- inhibition [1]: inactive
- IC50 [2]: 26.7 µM
- inhibition [3]: 96%
- IC50 [4]: 4.2 µM
- inhibition [5]: 55%
- IC50 (SAOS-2; read-out: IC50): 30.1 µM
- IC50 [6]: 15.4 µM
- IC50 [7]: 28.5 µM
- IC50 [8]: 46.3 µM
- IC50 (TE-671): 55 µM
- IC50 (DU-145): 19.4 µM
- IC50 [9]: 19 µM
- IC50 [10]: 21.1 µM
- IC50 [11]: 24.6 µM
- IC50 [12]: 36 µM
- IC50 [14]: 17.8 µM
- IC50 [15]: 17.1 µM
- IC50 [16]: 14.4 µM
- IC50 (HCT-116): 12.1 µM
- IC50 (MCF7): 11.3 µM
- IC50 [17]: 31 µM
- IC50 [18]: 3.9 µM
- IC50 [19]: 30.4 µM
- inhibition [20]: 60%
- IC50 [21]: 11.7 µM
- IC50 [22]: 1 µM
- IC50 [23]: 5 µM
- IC50 [24]: 24.8 µM
- IC50 (MKN-45): 38.2 µM
- IC50 [25]: 14.8 µM
- IC50 [26]: 62.9 µM
- IC50 [27]: 4.9 µM
- IC50 (RKO): 15.8 µM
- inhibition [28]: inactive
- IC50 (LNCaP): 32.5 µM
- IC50 (CWR22R): 11.1 µM
- IC50 [29]: 7.1 µM
- IC50 [30]: 14.1 µM
- IC50 [31]: 9 µM
- IC50 [32]: 9.3 µM
- IC50 [33]: 10.2 µM
- IC50 [34]: 16.7 µM
- IC50 [35]: 0.00593 µM
- IC50 (HT-29): 9.8 µM
- IC50 (CAL-27): 1.6 µM
- IC50 (NCI-H460): 15 µM
- IC50 (OVCAR-3): 24.6 µM
- IC50 (PANC-1): 28.4 µM

SMILES: C#Cc1cccc(Nc2ncnc3cc(OCCOC)c(OCCOC)cc23)c1 [ERLOTINIB]
- inhibition [1]: inactive
- IC50 [2]: 36.4 µM
- IC50 [4]: 25 µM
- IC50 (SAOS-2): 21 µM
- IC50 [6]: 96 µM
- IC50 [7]: 100 µM
- IC50 [8]: 17.2 µM
- IC50 (TE-671): 100 µM
- IC50 (DU-145): 0.966 µM
- IC50 [9]: 8.77 µM
- IC50 [10]: 45.6 µM
- IC50 [11]: 64.3 µM
- IC50 [12]: 31.6 µM
- IC50 [14]: 13.9 µM
- IC50 [15]: 34.5 µM
- IC50 [16]: 30.1 µM
- IC50 (HCT-116): 65.8 µM
- IC50 (MCF7): 100 µM
- IC50 [17]: 18.6 µM
- IC50 [18]: 0.369 µM
- IC50 [19]: 76.7 µM
- IC50 [21]: 16 µM
- IC50 [22]: 0.14 µM
- IC50 [23]: 0.66 µM
- IC50 [24]: 87.8 µM
- IC50 (MKN-45): 76.7 µM
- IC50 [25]: 17.4 µM
- IC50 [26]: 76.7 µM
- IC50 [27]: 24.5 µM
- IC50 (RKO): 100 µM
- inhibition [28]: inactive
- IC50 (LNCaP): 6.63 µM
- IC50 (CWR22R): 100 µM
- IC50 [29]: 1.78 µM
- IC50 [30]: 10 µM
- IC50 [31]: 34.6 µM
- IC50 [32]: 47.2 µM
- IC50 [33]: 10 µM
- IC50 [34]: 100 µM
- IC50 (HT-29): 100 µM
- IC50 (CAL-27): 0.239 µM
- IC50 (NCI-H460): 74.3 µM
- IC50 (OVCAR-3): 100 µM
- IC50 (PANC-1): 75.8 µM
